Key:
[1] = system: Adult male cynomolgus monkeys; experiment: Acute airway inflammation in the atopic primate (A. suum antigen challenge, bronchoalveolar lavage cell counts); format: in vivo, Macaca fascicularis; settings: p.o., 2 hours prior to A. suum antigen challenge; lavage at 24 hour after challenge; relative to vehicle treated control animals
Method: Acute airway inflammation in the atopic primate.
Airway inflammation in the monkey was determined using a modification of the protocol described by Turner et al. (Turner et al., 1994). Adult male cynomolgus monkeys (Macaca fascicularis, Hazelton Labs, Denver, Pa.) weighing between 3.6-5.8 kg were used in these studies.
On the day of each experiment the animals were anesthetized with ketamine hydrochloride, 12 mg/kg, and xylazine, 0.5 mg/kg, intubated with a cuffed endotracheal tube (3 mm, Mallinckrodt Medical, St. Louis, Mo.), then seated in an upright position in a specially designed Plexiglass chair (Plas-Labs, Lansing, Mich.). The endotracheal tube was connected to a heated Fleisch pneumotachograph. Airflow was measured via a Validyn differential pressure transducer (DP 45-24) that was attached to the pneumotachograph. Transpulmonary pressure was measured via a second Validyne transducer (DP 45-24) connected between a sidearm of the tracheal cannula and a 18-gauge intrapleural needle inserted in the intercostal space located below the left nipple. […]
Airway inflammation was induced by exposing the animal to an aerosol of A. Suum extract for 60 sec. […] Airway inflammation was assessed by inserting a pediatric bronchoscope into the airway lumen down to about the 4 or 5th generation bronchi and gently lavaging with 3 ×2 ml aliquots of sterile Hanks Balanced Salt Solution. […]

- melting point: 198 to 200 °C
Compound: Cc1cccc(Cl)c1C(=O)N[C@H](CO)Cc1ccc(NC(=O)c2c(Cl)cccc2Cl)cc1 [Example 1, 4-[[(2,6-dichlorophenyl)carbonyl]amino]-N-[(2-chloro-6-methylphenyl)carbonyl]-L-phenylalaninol]
- number of inflammatory cells present in the lavage fluid [1]: significant decrease
- percent of inflammatory cells present in the lavage fluid [1]: significant decrease

— US6420600B1, “Phenylalaninol derivatives” (Hoffman-La Roche Inc., priority 1999, dated 2002)
